In the supplement of paper PMC10307832:

Assays:
Test in all cases: relative viability (nuclei count vs DMSO), 5 days (fraction); higher = more cells survive
EBC-1 = system: EBC-1
Procedure, shortened: (§1)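 Lung cancer cell lines were seeded in 1536-well plates and dosed by pin tool the next day, with either a single drug or a fixed anchor-drug dose combined with five library-drug doses (not always all listed) spaced in √10 steps. Five days later, one step fixed the cells and stained their nuclei (final 0.05% Triton X-100, 1% formaldehyde, 1 ug/ml Hoechst), and nuclei were counted on 4× images. Relative viability is the nuclei count in treated wells divided by the count in vehicle wells, and each value is the median of duplicate plates.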

NCI-H1299 = system: NCI-H1299
Procedure, shortened: as §1

NCI-H1563 = system: NCI-H1563
Procedure, shortened: as §1

IA-LM = system: IA-LM
Procedure, shortened: as §1

A549 = system: A549
Procedure, shortened: as §1

NCI-H1703 = system: NCI-H1703
Procedure, shortened: as §1

Calu-6 = system: Calu-6
Procedure, shortened: as §1

Structure (SMILES): O=C(O)CCCCC(CCSCc1ccccc1)SCc1ccccc1 (stereo not given) [CPI-613] + C[C@@H](Oc1cc(-c2cnn(C3CCNCC3)c2)cnc1N)c1c(Cl)ccc(F)c1Cl [Crizotinib] (partner 1 µM)
- relative viability (EBC-1; first compound 5 µM): 0.179
- relative viability (EBC-1; first compound 15.81 µM): 0.198
- relative viability (EBC-1; first compound 50 µM): 0.197
- relative viability (EBC-1; first compound 158.11 µM): 0.133
- relative viability (EBC-1; first compound 500 µM): 0.167
- relative viability (NCI-H1299; first compound 5 µM): 0.926
- relative viability (NCI-H1299; first compound 15.81 µM): 0.942
- relative viability (NCI-H1299; first compound 50 µM): 0.944
- relative viability (NCI-H1299; first compound 158.11 µM): 0.889
- relative viability (NCI-H1299; first compound 500 µM): 0.861
- relative viability (NCI-H1563; first compound 5 µM): 0.834
- relative viability (NCI-H1563; first compound 15.81 µM): 0.877
- relative viability (NCI-H1563; first compound 50 µM): 0.857
- relative viability (NCI-H1563; first compound 158.11 µM): 0.477
- relative viability (NCI-H1563; first compound 500 µM): 0.211
- relative viability (IA-LM; first compound 5 µM): 0.584
- relative viability (IA-LM; first compound 15.81 µM): 0.549
- relative viability (IA-LM; first compound 50 µM): 0.621
- relative viability (IA-LM; first compound 158.11 µM): 0.454
- relative viability (IA-LM; first compound 500 µM): 0.22
- relative viability (A549; first compound 5 µM): 0.738
- relative viability (A549; first compound 15.81 µM): 0.595
- relative viability (A549; first compound 50 µM): 0.526
- relative viability (A549; first compound 158.11 µM): 0.191
- relative viability (A549; first compound 500 µM): 0.145
- relative viability (NCI-H1703; first compound 5 µM): 0.582
- relative viability (NCI-H1703; first compound 15.81 µM): 0.487
- relative viability (NCI-H1703; first compound 50 µM): 0.531
- relative viability (NCI-H1703; first compound 158.11 µM): 0.31
- relative viability (NCI-H1703; first compound 500 µM): 0.284
- relative viability (Calu-6; first compound 5 µM): 0.802
- relative viability (Calu-6; first compound 15.81 µM): 0.622
- relative viability (Calu-6; first compound 50 µM): 0.741
- relative viability (Calu-6; first compound 158.11 µM): 0.556
- relative viability (Calu-6; first compound 500 µM): 0.346

Structure (SMILES): O=C(O)CCCCC(CCSCc1ccccc1)SCc1ccccc1 (stereo not given) [CPI-613] + CC(C)C[C@H](NC(=O)[C@H](Cc1ccccc1)NC(=O)c1cnccn1)B(O)O [Bortezomib] (partner 0.002 µM)
- relative viability (EBC-1; first compound 5 µM): 0.576
- relative viability (EBC-1; first compound 15.81 µM): 0.51
- relative viability (EBC-1; first compound 50 µM): 0.481
- relative viability (EBC-1; first compound 158.11 µM): 0.0828
- relative viability (EBC-1; first compound 500 µM): 0.0663
- relative viability (NCI-H1299; first compound 5 µM): 1.01
- relative viability (NCI-H1299; first compound 15.81 µM): 1.01
- relative viability (NCI-H1299; first compound 50 µM): 1.05
- relative viability (NCI-H1299; first compound 158.11 µM): 1.06
- relative viability (NCI-H1299; first compound 500 µM): 1.03
- relative viability (NCI-H1563; first compound 5 µM): 0.956
- relative viability (NCI-H1563; first compound 15.81 µM): 0.859
- relative viability (NCI-H1563; first compound 50 µM): 0.848
- relative viability (NCI-H1563; first compound 158.11 µM): 0.508
- relative viability (NCI-H1563; first compound 500 µM): 0.208
- relative viability (IA-LM; first compound 5 µM): 0.729
- relative viability (IA-LM; first compound 15.81 µM): 0.697
- relative viability (IA-LM; first compound 50 µM): 0.758
- relative viability (IA-LM; first compound 158.11 µM): 0.0988
- relative viability (IA-LM; first compound 500 µM): 0.0045
- relative viability (NCI-H1703; first compound 5 µM): 0.29
- relative viability (NCI-H1703; first compound 15.81 µM): 0.375
- relative viability (NCI-H1703; first compound 50 µM): 0.316
- relative viability (NCI-H1703; first compound 158.11 µM): 0.174
- relative viability (NCI-H1703; first compound 500 µM): 0.102
- relative viability (Calu-6; first compound 5 µM): 0.945
- relative viability (Calu-6; first compound 15.81 µM): 0.887
- relative viability (Calu-6; first compound 50 µM): 0.879
- relative viability (Calu-6; first compound 158.11 µM): 0.241
- relative viability (Calu-6; first compound 500 µM): 0.0719

Structure (SMILES): O=c1[nH]c2ccccc2n1C1CCN(CCCC(c2ccc(F)cc2)c2ccc(F)cc2)CC1 [Pimozide] + C[C@@H](Oc1cc(-c2cnn(C3CCNCC3)c2)cnc1N)c1c(Cl)ccc(F)c1Cl [Crizotinib] (partner 1 µM)
- relative viability (EBC-1; first compound 0.08 µM): 0.19
- relative viability (EBC-1; first compound 0.253 µM): 0.232
- relative viability (EBC-1; first compound 0.8 µM): 0.199
- relative viability (EBC-1; first compound 2.53 µM): 0.175
- relative viability (EBC-1; first compound 8 µM): 0.152
- relative viability (NCI-H1299; first compound 0.08 µM): 0.955
- relative viability (NCI-H1299; first compound 0.253 µM): 0.838
- relative viability (NCI-H1299; first compound 0.8 µM): 0.934
- relative viability (NCI-H1299; first compound 2.53 µM): 0.811
- relative viability (NCI-H1299; first compound 8 µM): 0.885
- relative viability (NCI-H1563; first compound 0.08 µM): 0.824
- relative viability (NCI-H1563; first compound 0.253 µM): 0.844
- relative viability (NCI-H1563; first compound 0.8 µM): 0.803
- relative viability (NCI-H1563; first compound 2.53 µM): 0.775
- relative viability (NCI-H1563; first compound 8 µM): 0.645
- relative viability (IA-LM; first compound 0.08 µM): 0.975
- relative viability (IA-LM; first compound 0.253 µM): 0.88
- relative viability (IA-LM; first compound 0.8 µM): 0.988
- relative viability (IA-LM; first compound 2.53 µM): 0.879
- relative viability (IA-LM; first compound 8 µM): 0.859
- relative viability (A549; first compound 0.08 µM): 0.756
- relative viability (A549; first compound 0.253 µM): 0.668
- relative viability (A549; first compound 0.8 µM): 0.643
- relative viability (A549; first compound 2.53 µM): 0.658
- relative viability (A549; first compound 8 µM): 0.644
- relative viability (NCI-H1703; first compound 0.08 µM): 0.489
- relative viability (NCI-H1703; first compound 0.253 µM): 0.852
- relative viability (NCI-H1703; first compound 0.8 µM): 0.666
- relative viability (NCI-H1703; first compound 2.53 µM): 0.403
- relative viability (NCI-H1703; first compound 8 µM): 0.545
- relative viability (Calu-6; first compound 0.08 µM): 0.781
- relative viability (Calu-6; first compound 0.253 µM): 0.814
- relative viability (Calu-6; first compound 0.8 µM): 0.793
- relative viability (Calu-6; first compound 2.53 µM): 0.679
- relative viability (Calu-6; first compound 8 µM): 0.624
